Bridge positions count the residues as written; N and C are the ends. Peptide text beside a SMILES is read from it.
Columns and labels:
integrin αvβ8 [1] = target: T1, integrin αvβ8 (Homo sapiens, UniProt P06756+P26012); assay: AlphaLISA competition assay vs LAP, biotinylated αvβ8; type: binding
integrin αvβ6 [2] = target: T2, integrin αvβ6 (Homo sapiens, UniProt P06756+P18564); assay: AlphaLISA competition assay vs LAP, biotinylated αvβ6; type: binding
integrin αvβ6 [3] = target: T2, integrin αvβ6; assay: ELISA competition assay, integrin αvβ6 binding to LAP
integrin αvβ8 [4] = target: T1, integrin αvβ8; assay: ELISA competition assay, integrin αvβ8 binding to LAP
[5] = αvβ6 IC50, ELISA competition vs LAP, mean, n ≥ 3

CC[C@H](C)[C@H](NC(=O)[C@H](CC(C)C)NC(=O)[C@H](CC(=O)O)NC(=O)CNC(=O)[C@H](CCCNC(=N)N)NC(=O)[C@H](Cc1ccc(O)cc1)NC(=O)[C@H](Cc1ccccc1)NC(=O)[C@H](Cc1ccc(O)cc1)NC(=O)[C@@H]1CCC(=O)NCC(=O)NCC(=O)N[C@@H](C)C(=O)NCC(=O)N[C@@H](Cc2c[nH]cn2)C(=O)N[C@@H](C(C)C)C(=O)N2CCC[C@H]2C(=O)N1)C(=O)N[C@@H](CO)C(=O)N[C@@H](Cc1ccccc1)C(=O)N[C@@H](Cc1ccc(O)cc1)C(=O)NCC(=O)O [lassotide 22] (GGAGHVPEYFYRGDLISFYG-OH; lactam N-8; C-terminus assumed)
IC50 (integrin αvβ8 [1]): 78 nM
IC50 (integrin αvβ6 [2]): 198 nM

CC(C)C[C@H](NC(=O)[C@H](CC(=O)O)NC(=O)CNC(=O)[C@H](CCCNC(=N)N)NC(=O)[C@@H](NC(=O)[C@H](Cc1ccccc1)NC(=O)[C@H](Cc1ccc(O)cc1)NC(=O)[C@@H]1CCC(=O)NCC(=O)NCC(=O)N[C@@H](C)C(=O)NCC(=O)N[C@@H](Cc2c[nH]cn2)C(=O)N[C@@H](C(C)C)C(=O)N2CCC[C@H]2C(=O)N1)C(C)C)C(=O)N[C@@H](CCC(=O)O)C(=O)N[C@@H](CO)C(=O)N[C@@H](Cc1ccccc1)C(=O)N[C@@H](Cc1ccc(O)cc1)C(=O)NCC(=O)O [lassotide 27] (GGAGHVPEYFVRGDLESFYG-OH; lactam N-8; C-terminus assumed)
IC50 (integrin αvβ8 [1]): 264 nM
IC50 (integrin αvβ6 [2]): 141 nM

CC[C@H](C)[C@H](NC(=O)[C@H](CC(C)C)NC(=O)[C@H](CC(=O)O)NC(=O)CNC(=O)[C@H](CCCNC(=N)N)NC(=O)[C@@H](NC(=O)[C@H](Cc1ccccc1)NC(=O)[C@H](Cc1ccc(O)cc1)NC(=O)[C@@H]1CCC(=O)NCC(=O)NCC(=O)N[C@@H](Cc2ccccc2)C(=O)NCC(=O)N[C@@H](Cc2c[nH]cn2)C(=O)N[C@@H](C(C)C)C(=O)N2CCC[C@H]2C(=O)N1)C(C)C)C(=O)N[C@@H](CO)C(=O)N[C@@H](Cc1ccccc1)C(=O)N[C@@H](Cc1ccc(O)cc1)C(=O)NCC(=O)O [lassotide 33] (GGFGHVPEYFVRGDLISFYG-OH; lactam N-8; C-terminus assumed)
IC50 (integrin αvβ8 [1]): 125 nM
IC50 (integrin αvβ6 [2]): 347 nM

CC(C)C[C@H](NC(=O)[C@H](CC(=O)O)NC(=O)CNC(=O)[C@H](CCCNC(=N)N)NC(=O)[C@@H](NC(=O)[C@H](Cc1ccccc1)NC(=O)[C@H](Cc1ccc(O)cc1)NC(=O)[C@@H]1CCC(=O)NCC(=O)NCC(=O)N[C@@H](C)C(=O)NCC(=O)N[C@@H](Cc2c[nH]cn2)C(=O)N[C@@H](C(C)C)C(=O)N2CCC[C@H]2C(=O)N1)C(C)C)C(=O)N[C@@H](Cc1c[nH]c2ccccc12)C(=O)N[C@@H](CO)C(=O)N[C@@H](Cc1ccccc1)C(=O)N[C@@H](Cc1ccc(O)cc1)C(=O)NCC(=O)O [lassotide 26] (GGAGHVPEYFVRGDLWSFYG-OH; lactam N-8; C-terminus assumed)
IC50 (integrin αvβ8 [1]): 85 nM
IC50 (integrin αvβ6 [2]): 24 nM

CC[C@H](C)[C@H](NC(=O)[C@@H]1CCCN1C(=O)[C@H](Cc1c[nH]cn1)NC(=O)[C@H](CC(=O)O)NC(=O)CNC(=O)[C@H](CCCNC(=N)N)NC(=O)[C@@H](NC(=O)[C@H](Cc1ccccc1)NC(=O)[C@H](Cc1ccc(O)cc1)NC(=O)[C@@H]1CCC(=O)NCC(=O)NCC(=O)N[C@@H](C)C(=O)NCC(=O)N[C@@H](Cc2c[nH]cn2)C(=O)N[C@@H](C(C)C)C(=O)N2CCC[C@H]2C(=O)N1)C(C)C)C(=O)N[C@@H](CO)C(=O)N[C@@H](Cc1ccccc1)C(=O)N[C@@H](Cc1ccc(O)cc1)C(=O)NCC(=O)O [lassotide 6] (GGAGHVPEYFVRGDHPISFYG-OH; lactam N-8; C-terminus assumed)
IC50 (integrin αvβ8 [1]): 167 nM
IC50 (integrin αvβ6 [2]): 457 nM

CC[C@H](C)[C@H](NC(=O)[C@H](CC(C)C)NC(=O)[C@H](CC(=O)O)NC(=O)CNC(=O)[C@H](CCCNC(=N)N)NC(=O)[C@H](CCCNC(=N)N)NC(=O)[C@H](Cc1ccccc1)NC(=O)[C@H](Cc1ccc(O)cc1)NC(=O)[C@@H]1CCC(=O)NCC(=O)NCC(=O)N[C@@H](C)C(=O)NCC(=O)N[C@@H](Cc2c[nH]cn2)C(=O)N[C@@H](C(C)C)C(=O)N2CCC[C@H]2C(=O)N1)C(=O)N[C@@H](CO)C(=O)N[C@@H](Cc1ccccc1)C(=O)N[C@@H](Cc1ccc(O)cc1)C(=O)NCC(=O)O [lassotide 20] (GGAGHVPEYFRRGDLISFYG-OH; lactam N-8; C-terminus assumed)
IC50 (integrin αvβ8 [1]): 38 nM
IC50 (integrin αvβ6 [2]): 17 nM

CC[C@H](C)[C@H](NC(=O)[C@H](CC(C)C)NC(=O)[C@H](CC(=O)O)NC(=O)CNC(=O)[C@H](CCCNC(=N)N)NC(=O)[C@@H](NC(=O)[C@H](Cc1ccccc1)NC(=O)[C@H](Cc1ccc(O)cc1)NC(=O)[C@@H]1CCC(=O)NCC(=O)NCC(=O)N[C@@H]([C@@H](C)O)C(=O)NCC(=O)N[C@@H](Cc2c[nH]cn2)C(=O)N[C@@H](C(C)C)C(=O)N2CCC[C@H]2C(=O)N1)C(C)C)C(=O)N[C@@H](CO)C(=O)N[C@@H](Cc1ccccc1)C(=O)N[C@@H](Cc1ccc(O)cc1)C(=O)NCC(=O)O [lassotide 34] (GGTGHVPEYFVRGDLISFYG-OH; lactam N-8; C-terminus assumed)
IC50 (integrin αvβ6 [3]; [5]): 44 nM
IC50 (integrin αvβ8 [4]): 28 nM

CC[C@H](C)[C@@H]1NC(=O)[C@H](CO)NC(=O)CNC(=O)[C@H](CCCNC(=N)N)NC(=O)CNC(=O)CNC(=O)CC[C@@H](C(=O)N[C@@H](Cc2ccc(O)cc2)C(=O)N[C@@H](Cc2ccccc2)C(=O)N[C@H](C(=O)N[C@@H](CCCNC(=N)N)C(=O)NCC(=O)N[C@@H](CC(=O)O)C(=O)N[C@@H](CC(C)C)C(=O)N[C@@H](CCC(N)=O)C(=O)N[C@@H](CO)C(=O)N[C@@H](Cc2ccccc2)C(=O)N[C@@H](Cc2ccc(O)cc2)C(=O)N[C@@H](CCCCN)C(=O)O)C(C)C)NC(=O)[C@@H]2CCCN2C1=O [lassotide 43] (GGRGSIPEYFVRGDLQSFYK-OH; lactam N-8; C-terminus assumed)
IC50 (integrin αvβ6 [3]; [5]): 1.2 nM
IC50 (integrin αvβ8 [4]): 5.1 nM

CC[C@H](C)[C@H](NC(=O)[C@H](CC(C)C)NC(=O)[C@H](CC(=O)O)NC(=O)CNC(=O)[C@H](CCCNC(=N)N)NC(=O)[C@@H](NC(=O)[C@H](Cc1ccccc1)NC(=O)[C@H](Cc1ccc(O)cc1)NC(=O)[C@@H]1CCC(=O)NCC(=O)NCC(=O)N[C@@H](CCC(=O)O)C(=O)NCC(=O)N[C@@H](Cc2c[nH]cn2)C(=O)N[C@@H](C(C)C)C(=O)N2CCC[C@H]2C(=O)N1)C(C)C)C(=O)N[C@@H](CO)C(=O)N[C@@H](Cc1ccccc1)C(=O)N[C@@H](Cc1ccc(O)cc1)C(=O)NCC(=O)O [lassotide 29] (GGEGHVPEYFVRGDLISFYG-OH; lactam N-8; C-terminus assumed)
IC50 (integrin αvβ6 [3]; [5]): 104 nM
IC50 (integrin αvβ8 [4]): 47 nM

CC[C@H](C)[C@@H]1NC(=O)[C@H](CO)NC(=O)CC[C@@H](C(=O)N[C@@H](CCCNC(=N)N)C(=O)NCC(=O)N[C@@H](CC(=O)O)C(=O)N[C@@H](CC(C)C)C(=O)N[C@@H](CCC(N)=O)C(=O)N[C@H](C(=O)N[C@@H](Cc2ccc(O)cc2)C(=O)N[C@@H](Cc2c[nH]c3ccccc23)C(=O)N2CCC[C@H]2C(=O)O)[C@@H](C)O)NC(=O)[C@H](CCCNC(=N)N)NC(=O)[C@H](CC(C)C)NC(=O)CNC(=O)[C@H](CO)NC(=O)[C@H](CC(=O)O)NC(=O)CNC1=O [lassotide 18] (SIGDSGLRERGDLQTYWP-OH; lactam N-9; C-terminus assumed)
IC50 (integrin αvβ6 [3]; [5]): 3200 nM
IC50 (integrin αvβ8 [4]): 2470 nM

CC[C@H](C)[C@@H]1NC(=O)[C@H](Cc2c[nH]cn2)NC(=O)CNC(=O)[C@H]([C@@H](C)O)NC(=O)CNC(=O)CNC(=O)CC[C@@H](C(=O)N[C@@H](Cc2ccc(O)cc2)C(=O)N[C@@H](Cc2ccccc2)C(=O)N[C@@H](CCC(N)=O)C(=O)N[C@@H](CCCNC(=N)N)C(=O)NCC(=O)N[C@@H](CC(=O)O)C(=O)N[C@@H](CC(C)C)C(=O)N[C@@H](CCC(N)=O)C(=O)N[C@@H](CO)C(=O)N[C@@H](Cc2ccccc2)C(=O)N[C@@H](Cc2ccc(O)cc2)C(=O)NCC(=O)O)NC(=O)[C@@H]2CCCN2C1=O [lassotide 46] (GGTGHIPEYFQRGDLQSFYG-OH; lactam N-8; C-terminus assumed)
IC50 (integrin αvβ6 [3]; [5]): 2.1 nM
IC50 (integrin αvβ8 [4]): 1.3 nM

CC(C)C[C@H](NC(=O)[C@H](CC(=O)O)NC(=O)CNC(=O)[C@H](CCCNC(=N)N)NC(=O)[C@H](CCC(N)=O)NC(=O)[C@H](Cc1ccccc1)NC(=O)[C@H](Cc1ccc(O)cc1)NC(=O)[C@@H]1CCC(=O)NCC(=O)NCC(=O)N[C@@H]([C@@H](C)O)C(=O)NCC(=O)N[C@@H](Cc2c[nH]cn2)C(=O)N[C@@H](C(C)C)C(=O)N2CCC[C@H]2C(=O)N1)C(=O)N[C@@H](CCC(N)=O)C(=O)N[C@@H](CO)C(=O)N[C@@H](Cc1ccccc1)C(=O)N[C@@H](Cc1ccc(O)cc1)C(=O)NCC(=O)O [lassotide 45] (GGTGHVPEYFQRGDLQSFYG-OH; lactam N-8; C-terminus assumed)
IC50 (integrin αvβ6 [3]): 0.7 nM
IC50 (integrin αvβ8 [4]): 1 nM

CC[C@H](C)[C@H](NC(=O)[C@H](CC(C)C)NC(=O)[C@H](CC(=O)O)NC(=O)CNC(=O)[C@H](CCCNC(=N)N)NC(=O)[C@H](C)NC(=O)[C@H](Cc1ccccc1)NC(=O)[C@H](Cc1ccc(O)cc1)NC(=O)[C@@H]1CCC(=O)NCC(=O)NCC(=O)N[C@@H](C)C(=O)NCC(=O)N[C@@H](Cc2c[nH]cn2)C(=O)N[C@@H](C(C)C)C(=O)N2CCC[C@H]2C(=O)N1)C(=O)N[C@@H](CO)C(=O)N[C@@H](Cc1ccccc1)C(=O)N[C@@H](Cc1ccc(O)cc1)C(=O)NCC(=O)O [lassotide 19] (GGAGHVPEYFARGDLISFYG-OH; lactam N-8; C-terminus assumed)
IC50 (integrin αvβ6 [3]; [5]): 66 nM
IC50 (integrin αvβ8 [4]): 24 nM

CC[C@H](C)[C@H](NC(=O)[C@H](CC(C)C)NC(=O)[C@H](CC(=O)O)NC(=O)CNC(=O)[C@H](CCCNC(=N)N)NC(=O)[C@@H](NC(=O)[C@H](Cc1ccccc1)NC(=O)[C@H](Cc1ccc(O)cc1)NC(=O)[C@@H]1CCC(=O)NCC(=O)NCC(=O)N[C@@H](CC(C)C)C(=O)NCC(=O)N[C@@H](Cc2c[nH]cn2)C(=O)N[C@@H](C(C)C)C(=O)N2CCC[C@H]2C(=O)N1)C(C)C)C(=O)N[C@@H](CO)C(=O)N[C@@H](Cc1ccccc1)C(=O)N[C@@H](Cc1ccc(O)cc1)C(=O)NCC(=O)O [lassotide 32] (GGLGHVPEYFVRGDLISFYG-OH; lactam N-8; C-terminus assumed)
IC50 (integrin αvβ6 [3]; [5]): 53 nM
IC50 (integrin αvβ8 [4]): 32 nM
